# Laboratory results taken from patent publication US8975235B2, “Lysophosphatidic acid receptor antagonists” (InterMune, Inc., priority 2011, dated 2015).
# Columns and labels:
# Type in all cases: cell-based
# [1] = target: T1, Human LPA3 (Homo sapiens, UniProt Q9UBY5); assay: LPA3 calcium flux assay; details: human LPA3 expressing CHO cells; stimulated with 10 nM LPA; read-out: Ca Flux LPA3 IC50
# T1 construct: The full-length cDNA fragment for human LPA3 is obtained by PCR from the vector; expressed in transfected cells; host or cells: CHO
# T1 sequence (Q9UBY5 1-353): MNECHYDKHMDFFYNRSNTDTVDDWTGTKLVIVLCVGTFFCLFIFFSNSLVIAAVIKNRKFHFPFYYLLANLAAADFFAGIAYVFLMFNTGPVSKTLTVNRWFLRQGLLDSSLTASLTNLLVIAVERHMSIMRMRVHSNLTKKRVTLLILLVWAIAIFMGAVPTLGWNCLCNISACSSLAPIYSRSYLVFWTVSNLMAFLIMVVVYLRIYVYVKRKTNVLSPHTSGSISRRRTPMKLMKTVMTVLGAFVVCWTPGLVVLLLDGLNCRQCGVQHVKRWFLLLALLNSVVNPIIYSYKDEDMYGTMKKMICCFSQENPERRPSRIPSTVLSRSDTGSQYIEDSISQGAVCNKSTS
# Protocol: Establishment of a CHO Cell Line Stably Expressing Human LPA3
# A vector containing the human LPA3 receptor cDNA is obtained from the Missouri S&T cDNA Resource Center (www.cdna.org). The full-length cDNA fragment for human LPA3 is obtained by PCR from the vector. The nucleotide sequence of the cloned human LPA3 is determined by sequencing and is confirmed to be identical to the published human LPA3 sequence (NCBI accession number NM_012152). The cDNA is cloned into the pcDNA5 pcDNA5/FRT expression plasmid and is transfected in CHO cells using lipofectamine 2000 (Invitrogen Corp., USA). Clones stably expressing human LPA3 are selected using hygromycin and identified as cells that show Ca-influx in response to LPA.
# (§1) LPA1 and LPA3 Calcium Flux Assays
# (§2) Human LPA1 or LPA3 expressing CHO cells were seeded at 20,000-45,000 cells per well in a 96-well poly-D-lysine coated plate one or two days before the assay. Prior to the assay, the cells were washed once with PBS and then cultured in serum-free media overnight. On the day of the assay, a calcium indicator dye (Calcium 4, Molecular Devices) in assay buffer (HBSS with Ca^2+ and Mg^2+ and containing 20 mM Hepes and 0.3% fatty-acid free human serum albumin) was added to each well and incubation continued for 1 hour at 37° C. 10 μl of test compounds in 2.5% DMSO were added to the cells and incubation continued at room temperature for 30 minutes. Cells were then stimulated by the addition of 10 nM LPA and intracellular Ca^2+ measured using the Flexstation 3 (Molecular Devices). IC50s were determined using Graphpad prism analysis of drug titration curves.
# [2] = target: T2, Human LPA1 (Homo sapiens, UniProt Q92633); assay: Beta-Arrestin based assay for human LPA1R antagonists (PathHunter); design: host or cells: CHO; details: CHO cells stably expressing ProLink tagged human LPA1R; agonist LPA 0.5 micromolar
# T2 sequence (Q92633 whole entry, the tested form may be a part): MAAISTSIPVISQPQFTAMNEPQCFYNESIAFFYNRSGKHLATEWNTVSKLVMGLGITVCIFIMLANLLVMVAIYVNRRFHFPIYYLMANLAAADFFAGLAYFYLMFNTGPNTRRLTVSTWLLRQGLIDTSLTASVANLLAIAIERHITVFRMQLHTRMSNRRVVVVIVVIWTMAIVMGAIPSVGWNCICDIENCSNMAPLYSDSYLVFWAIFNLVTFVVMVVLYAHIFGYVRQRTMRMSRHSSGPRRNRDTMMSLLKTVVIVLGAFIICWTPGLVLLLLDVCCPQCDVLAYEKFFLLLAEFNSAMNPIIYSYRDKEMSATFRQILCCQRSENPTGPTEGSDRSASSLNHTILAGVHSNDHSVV
# In short: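 CHO cells stably expressing ProLink-tagged human LPA1R with β-arrestin–EA fusion, assayed by β-galactosidase complementation. Antagonists tested against 0.5 micromolar LPA ([…]), in quadruplicate. End-point luminescence fitted to a 4-parameter logistic to give IC50.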
# [3] = target: T2, Human LPA1; assay: LPA1 calcium flux assay; design: the full-length cDNA for human LPA1 is obtained by PCR of the reverse transcription reaction; expressed in transfected cells; host or cells: CHO; details: human LPA1 expressing CHO cells; stimulated with 10 nM LPA; read-out: Ca Flux LPA1 IC50
# Protocol: Establishment of a CHO Cell Line Stably Expressing Human LPA1
# A 1.1 kb cDNA encoding the human LPA1 receptor is cloned from human lung. Human lung RNA (Clontech Laboratories, Inc. USA) is reverse transcribed using the RETROscript kit (Ambion, Inc.) and the full-length cDNA for human LPA1 is obtained by PCR of the reverse transcription reaction. The nucleotide sequence of the cloned human LPA1 is determined by sequencing and is confirmed to be identical to the published human LPA1 sequence (An et al. Biochem. Biophys. Res. Commun. 231:619 (1997). The cDNA is cloned into the pcDNA5 pcDNA5/FRT expression plasmid and is transfected in CHO cells using lipofectamine 2000 (Invitrogen Corp., USA). Clones stably expressing human LPA1 are selected using hygromycin and identified as cells that show Ca-influx in response to LPA.
# as §1, §2
SMILES,IC50 [1] [nM],EC50 [2] [nM],IC50 [3] [nM]
C[C@@H](OC(=O)Nc1c(-c2ccc(-c3ccc(C4(C(=O)O)CC4)cc3)cc2)cnn1C)c1ccccc1 [Compound 170],> 500,< 50,< 50
C[C@@H](OC(=O)Nc1c(-c2ccc(-c3ccc(C4(C(=O)O)CC4)cc3)cc2)cnn1C)c1ccccc1Cl [Compound 171],> 500,< 50,< 50
